What follows are molecules tested on MDA-MB-231 (assay: Cytotoxicity against human MDA-MB-231 cells after 3 days by Celltiter-Glo assay). Conditions: MDA-MB-231, 72 h.
Type: functional, cell-based
`C=C(C)[C@H]1CC=C2[C@@H](CC[C@]3(C)[C@@H]([C@@H](CCC=C(C)C)C(=O)O)CC[C@@]23C)[C@]1(C)CCC(=O)NCc1ccc(Br)cc1` gave an IC50 of 140 µM. `C=C(C)[C@H]1CC=C2[C@@H](CC[C@]3(C)[C@@H]([C@@H](CCC=C(C)C)C(=O)OC)CC[C@@]23C)[C@]1(C)CCC(=O)OC` showed an IC50 of 63.5 µM. In the case of `C=C(C)[C@H]1CC=C2[C@@H](CC[C@]3(C)[C@@H]([C@@H](CCC=C(C)C)C(=O)O)CC[C@@]23C)[C@]1(C)CCC(=O)O`, the IC50 is reported as 127 µM. With `C=C(C)[C@H]1CC=C2[C@@H](CC[C@]3(C)[C@@H]([C@@H](CCC=C(C)C)C(=O)O)CC[C@@]23C)[C@]1(C)CCC(=O)OC` the IC50 was 55 µM. Molecule `CC[C@H](/C=C/[C@@H](C)[C@H]1CC[C@H]2[C@@H]3CC=C4C[C@@H](O)CC[C@]4(C)[C@H]3CC[C@]12C)C(C)C` [STIGMASTEROL] has an IC50 of 564 µM.
